Measured values taken from patent US20040157818A1, “Cxcr4-antagonistic drugs composed of nitrogen-containing compound” (priority 2001, published 2004).

The compounds below were run against T1, CXCR4 (Homo sapiens, UniProt P61073) (assay: CXCR4-binding inhibition activity (125I-SDF-1α binding to MT-4 cells)). Conditions: 0.1 μM test material, ligand 125I-SDF-1α, 2 hours under ice cold condition.
T1 construct: endogenous in cells; host or cells: MT-4 cells
T1 sequence (P61073 whole entry): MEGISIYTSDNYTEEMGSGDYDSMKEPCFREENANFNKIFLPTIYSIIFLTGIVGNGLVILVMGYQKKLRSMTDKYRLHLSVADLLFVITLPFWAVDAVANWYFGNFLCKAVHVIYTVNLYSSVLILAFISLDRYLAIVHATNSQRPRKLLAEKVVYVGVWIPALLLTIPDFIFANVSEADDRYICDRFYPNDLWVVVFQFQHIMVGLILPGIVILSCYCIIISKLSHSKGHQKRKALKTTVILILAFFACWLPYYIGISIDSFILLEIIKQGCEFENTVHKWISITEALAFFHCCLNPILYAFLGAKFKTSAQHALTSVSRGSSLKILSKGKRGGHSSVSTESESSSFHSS
Description: CXCR4-Binding Inhibition Activity
MT-4 cells (5×10^6/0.2 ml/well) were cultured on a 24-well microtiter plate. After the cells were incubated for 24 hours at 37° C. in a carbon dioxide gas incubator, a culture mediumwas replaced with a buffer solution (RPMI-1640 containing 0.1% BSA). Together with a ligand ^125I-SDF-1α (specific activity: 2,2000 Ci/mmol; DAIICHI PURE CHEMICALS CO. ,LTD. (Tokyo)), various concentrations of test materials were subjected to a binding reaction for 2 hours under ice cold condition.
`C[C@@H](NC(=O)[C@H](CCCNC1CCCc2cccnc21)NC(=O)c1ccc(CNCc2ncc[nH]2)c2ccccc12)c1cccc2ccccc12` (stereo partly shown) [Compound No. 59] was tested, and the “inhibition rate (binding-inhibition % at 0.1 μM)” value was 86.0%. For `Cn1ccnc1CNCCC[C@H](NC(=O)c1ccc(CNCc2nccn2C)c2ccccc12)C(=O)NCc1cccc2ccccc12` [Compound No. 29, (S)-2-(4-((1-methylimidazol-2-ylmethyl)aminomethyl)naphthoylamino)-5-((1-methylimidazol-2-ylmethyl)amino)valerate 1-naphthalenemethylamide], the “inhibition rate (binding-inhibition % at 0.1 μM)” value was 56.8%. With `C[C@H](NC(=O)[C@H](CCCNC1CCCc2cccnc21)NC(=O)c1ccc(CNCc2ccccn2)nc1)c1cccc2ccccc12` (stereo partly drawn) [Compound No. 83, (2S)-2-(2-(N-2-picolylaminomethyl)pyridin-5-ylcarbonyl)amino-5-(5,6,7,8-tetrahydroquinolin-8-yl)amino valerate(1′S)-1′-(1-naphthyl)ethylamide] the “inhibition rate (binding-inhibition % at 0.1 μM)” value was 78.0%. In the case of `O=C(N[C@@H](CCNCc1ccccn1)C(=O)NCc1cccc2ccccc12)c1ccc(CNCc2ccccn2)cc1` [Compound No. 61, (S)-2-(4-(N-2-picolylamino)methylbenzoylamino)-4-(N-2-picolylamino)lactate 1-naphthalenemethylamide], the “inhibition rate (binding-inhibition % at 0.1 μM)” value is reported as 32.9%. `O=C(N[C@@H](CCCNCc1ccccn1)C(=O)NCc1cccc2ccccc12)c1ccc(CNCc2ccccn2)c2ccccc12` [Compound No. 27, (S)-2-(4-(N-2-picolylaminomethyl)naphthoylamino)-5-(2-picolylamino)valerate 1-naphthalenemethylamide] was tested, and the “inhibition rate (binding-inhibition % at 0.1 μM)” value was 82.1%. For `O=C(N[C@@H](CCCNC1CCCc2cccnc21)C(=O)NCc1cccc2ccccc12)c1ccc(CNc2ccccn2)c2ccccc12` (stereo partly drawn) [Compound No. 104, (2S)-2-(4-(2-pyridyl)aminomethylnaphthalene-1-carbonyl)anmino-5-(5,6,7,8-tetrahydroquinolin-8-yl)amino valerate 1-naphthylmethylamide], the “inhibition rate (binding-inhibition % at 0.1 μM)” value was 40.6%. For `O=C(N[C@@H](CCCNCc1ncc[nH]1)C(=O)NCc1cccc2ccccc12)c1ccc(CNCc2ncc[nH]2)c2ccccc12` [Compound No. 28, (S)-2-(4-((imidazol-2-ylmethyl)aminomethyl)naphthoylamino)-5-((imidazol-2-ylmethyl)amino)valerate 1-naphthalenemethylamide], the “inhibition rate (binding-inhibition % at 0.1 μM)” value was 78.1%. `O=C(N[C@@H](CCCNC1CCCc2cccnc21)C(=O)NCCc1c[nH]c2ccccc12)c1ccc(CNCc2ncc[nH]2)c2ccccc12` (stereo partly drawn) [Compound No. 19, (2S)-2-(4-((N-imidazol-2-ylmethyl)aminomethyl)naphthoylamino)-5-(5,6,7,8-tetrahydroquinolin-8-ylamino)2-(3-indolyl)ethylamide valerate] was tested, and the “inhibition rate (binding-inhibition % at 0.1 μM)” value was 73.8%. For `O=C(N[C@@H](CCCN[C@H]1CCCc2cccnc21)C(=O)NCc1cccc2ccccc12)c1ccc(CNCc2ccccn2)c2ccccc12` [Compound No. 105, (2S)-2-(4-(N-2-picolylaminomethyl)naphthalene-1-carbonyl)amino-5-((8S)-5,6,7,8-tetrahydroquinolin-8-yl)amino valerate 1-naphthylmethylamide], the “inhibition rate (binding-inhibition % at 0.1 μM)” value was 91.9%. In the case of `C[C@H](NC(=O)[C@H](CCCNCc1ccccn1)NC(=O)c1ccc(CNCc2ncc[nH]2)c2ccccc12)c1cccc2ccccc12` [Compound No. 56], the “inhibition rate (binding-inhibition % at 0.1 μM)” value is reported as 69.9%. In the case of `C[C@H](NC(=O)[C@H](CCCNC1=NCCN1)NC(=O)c1ccc(CNCc2ncc[nH]2)cc1)c1cccc2ccccc12` [Compound No. 110, (S)-2-(4-((N-imidazol-2-ylmethyl)aminomethyl)benzoyl)amino-5-(4,5-dihydroimidazol-2-yl)amino valerate(1′S)-1′-(1-naphthyl)ethylamide], the “inhibition rate (binding-inhibition % at 0.1 μM)” value is reported as 75.7%. With `C[C@H](NC(=O)[C@H](CCCNC1CCCc2cccnc21)NC(=O)c1ccc(CNCc2ccccn2)c2ccccc12)c1cccc2ccccc12` (stereo partly drawn) [Compound No. 85, (2S)-2-(4-(N-2-picolylaminomethyl)naphthoyl)amino-5-(5,6,7,8-tetrahydroquinolin-8-yl)amino valerate(1′S)-1′-(1-naphthyl)-ethylamide] the “inhibition rate (binding-inhibition % at 0.1 μM)” value was 90.7%. In the case of `Cn1cccc1CNCCC[C@H](NC(=O)c1ccc(CNCc2ccccn2)cc1)C(=O)NCc1cccc2ccccc12` [Compound No. 5, (S)-2-(4-(N-2-picolylaminomethyl)benzoylamino)-5-((1-methylpyrrol-2-ylmethyl)amino)valerate 1-naphthalenemethylamide], the “inhibition rate (binding-inhibition % at 0.1 μM)” value is reported as 26.4%. `C[C@H](NC(=O)[C@H](CCCNC1=NCCCN1)NC(=O)c1ccc(CNCc2ncc[nH]2)cc1)c1cccc2ccccc12` [Compound No. 112, (S)-2-(4-((N-imidazol-2-ylmethyl)aminomethyl)benzoyl)amino-5-(3,4,5,6-tetrahydropyrimidin-2-yl)amino valerate(1′S)-1′-(1-naphthyl)ethylamide] was tested, and the “inhibition rate (binding-inhibition % at 0.1 μM)” value was 84.2%. With `C[C@@H](NC(=O)[C@H](CCCNCc1ccccn1)NC(=O)c1ccc(CNCc2ncc[nH]2)c2ccccc12)c1cccc2ccccc12` [Compound No. 58] the “inhibition rate (binding-inhibition % at 0.1 μM)” value was 52.0%. In the case of `O=C(N[C@@H](CCCNCc1ccccn1)C(=O)NCc1cccc2ccccc12)c1ccc(CNCc2ncc[nH]2)c2ccccc12` [Compound No. 40, (S)-2-(4-((N-imidazol-2-ylmethyl)aminomethyl)naphthoylamino)-5-(2-picolylamino)valerate 1-naphthalenemethylamide], the “inhibition rate (binding-inhibition % at 0.1 μM)” value is reported as 85.3%. `C[C@H](NC(=O)[C@H](CCCNC(=N)N)NC(=O)c1ccc(CNCc2ncc[nH]2)cc1)c1cccc2ccccc12` [Compound No. 95] was tested, and the “inhibition rate (binding-inhibition % at 0.1 μM)” value was 100.0%. For `O=C(N[C@@H](CCCNC1CCCc2cccnc21)C(=O)NCc1cccc2ccccc12)c1ccc(CNC2CCCc3cccnc32)c2ccccc12` (stereo partly drawn) [Compound No. 26, (2S)-2-(4-(5,6,7,8-tetrahydroquinolin-8-ylaminomethyl)naphthoyl)amino-5-(5,6,7,8-tetrahydroquinolin-8-ylamino)valerate 1-naphthalenemethylamide], the “inhibition rate (binding-inhibition % at 0.1 μM)” value was 78.6%. For `O=C(N[C@@H](CCCNC1CCCc2cccnc21)C(=O)NCc1cccc2ccccc12)c1ccc(CNC2CCCc3cccnc32)cc1` (stereo partly drawn) [Compound No. 64, (2S)-2-(4-((5,6,7,8-tetrahydroquinolin-8-yl)aminomethyl)benzoylamino)-5-((5,6,7,8-tetrahydroquinolin-8-yl)amino)valerate 1-naphthalenemethylamide], the “inhibition rate (binding-inhibition % at 0.1 μM)” value was 51.6%. With `O=C(N[C@@H](CCCNCc1ncc[nH]1)C(=O)NCc1cccc2ccccc12)c1ccc(CNCc2ncc[nH]2)cc1` [Compound No. 21, (S)-2-(4-((imidazol-2-ylmethyl)aminomethyl)benzoylamino)-5-((imidazol-2-ylmethyl)amino)valerate 1-naphthalenemethylamide] the “inhibition rate (binding-inhibition % at 0.1 μM)” value was 12.8%. In the case of `C[C@H](NC(=O)[C@H](CCCNCc1nccn1C)NC(=O)c1ccc(CNCc2nccn2C)c2ccccc12)c1cccc2ccccc12` [Compound No. 87], the “inhibition rate (binding-inhibition % at 0.1 μM)” value is reported as 57.9%. In the case of `Cn1cccc1CNCCC[C@H](NC(=O)c1ccc(CNCc2nccn2C)cc1)C(=O)NCc1cccc2ccccc12` [Compound No. 30, (S)-2-(4-((1-methylimidazol-2-ylmethyl)aminomethyl)benzoylamino)-5-((1-methylpyrrol-2-ylmethyl)amino)valerate 1-naphthalenemethylamide], the “inhibition rate (binding-inhibition % at 0.1 μM)” value is reported as 60.9%. `O=C(N[C@@H](CCCNCc1ccccn1)C(=O)NCc1cccc2ccccc12)c1ccc(CNCc2ccccn2)cc1` [Compound No. 60, (S)-2-(4-(N-2-picolylaminomethyl)benzoylamino)-5-(N-2-picolylamino)valerate 1-naphthalenemethylamide] was tested, and the “inhibition rate (binding-inhibition % at 0.1 μM)” value was 16.8%. With `C[C@H](NC(=O)[C@H](CCCNC1CCCc2cccnc21)NC(=O)c1ccc(CNCc2ccccn2)cc1)c1cccc2ccccc12` (stereo partly drawn) [Compound No. 91, (2S)-2-(4-(N-2-picolylaminomethyl)benzoyl)amino-5-(5,6,7,8-tetrahydroquinolin-8-yl)amino valerate(1′S)-1′-(1-naphthyl)ethylamide] the “inhibition rate (binding-inhibition % at 0.1 μM)” value was 94.0%. `N=C(N)NCCC[C@H](NC(=O)c1ccc(CNCc2ccccn2)c2ccccc12)C(=O)NCc1cccc2ccccc12` [Compound No. 44, N^α-(4-(N-2-picolylaminomethyl)naphthoyl)-L-arginine 1-naphthalenemethylamide] was tested, and the “inhibition rate (binding-inhibition % at 0.1 μM)” value was 88.1%. In the case of `NC(N)=NCCC[C@H](NC(=O)c1ccc(CNCc2ccccn2)cc1)C(=O)NCc1cccc2ccccc12` [Compound No. 43, N^α-(4-(N-2-picolylaminomethyl)benzoyl)-L-arginine 1-naphthalenemethylamide], the “inhibition rate (binding-inhibition % at 0.1 μM)” value is reported as 43.6%. In the case of `N=C(N)NCCC[C@H](NC(=O)c1ccc(CNCc2ncc[nH]2)c2ccccc12)C(=O)NCc1cccc2ccccc12` [Compound No. 45, N^α-(4-((N-imidazol-2-ylmethyl)aminomethyl)naphthoyl)-L-arginine 1-naphthalenemethylamide], the “inhibition rate (binding-inhibition % at 0.1 μM)” value is reported as 95.8%.

Same assay, conditions: 0.1 μM test material, ligand 125I-SDF-1α, 2 hours under ice cold condition, read-out: inhibition rate (binding-inhibition % at 0.1 μM)
Work on `c1cc(CN2CCCNCCNCCCNCC2)ccc1CN1CCCNCCNCCCNCC1` [AMD3100, reference compound] yielded an inhibition at 0.1 µM of 10%.
